Measured values published in the NIST ThermoML archive (doi:10.1007/s10765-005-8101-x).
Numbers after ± are expanded uncertainties.

How the values were obtained:
[1] = xn = mol fraction of the nth substance listed; settings: 298.15 K, 101 kPa, Liquid
[2] = 298.15 K; 101.33 kPa; Liquid

CCCCO [butan-1-ol] + CC(C)O
mass density ([1]; x2 = 0.0596): 804.62 ± 0.95 kg/m3
speed of sound ([1]; x2 = 0.0596): 1235.6 ± 5.5 m/s
mass density ([1]; x2 = 0.1039): 803.68 ± 0.95 kg/m3
speed of sound ([1]; x2 = 0.1039): 1231.8 ± 5.5 m/s
mass density ([1]; x2 = 0.2093): 801.62 ± 0.96 kg/m3
speed of sound ([1]; x2 = 0.2093): 1223.2 ± 5.4 m/s
mass density ([1]; x2 = 0.3024): 799.57 ± 0.96 kg/m3
speed of sound ([1]; x2 = 0.3024): 1214.8 ± 5.4 m/s
mass density ([1]; x2 = 0.3977): 797.49 ± 0.97 kg/m3
speed of sound ([1]; x2 = 0.3977): 1206.1 ± 5.4 m/s
mass density ([1]; x2 = 0.5033): 794.92 ± 0.98 kg/m3
speed of sound ([1]; x2 = 0.5033): 1195.9 ± 5.4 m/s
mass density ([1]; x2 = 0.599): 792.68 ± 0.98 kg/m3
speed of sound ([1]; x2 = 0.599): 1186.5 ± 5.3 m/s
mass density ([1]; x2 = 0.6946): 790.21 ± 0.99 kg/m3
speed of sound ([1]; x2 = 0.6946): 1176.4 ± 5.3 m/s
mass density ([1]; x2 = 0.8062): 787.19 ± 1 kg/m3
speed of sound ([1]; x2 = 0.8062): 1164.1 ± 5.3 m/s
mass density ([1]; x2 = 0.8938): 784.58 ± 1 kg/m3
speed of sound ([1]; x2 = 0.8938): 1153.6 ± 5.2 m/s

CC(C)O [propan-2-ol] + CCCO
mass density ([1]; x1 = 0.1051): 798.37 ± 0.97 kg/m3
speed of sound ([1]; x1 = 0.1051): 1201 ± 5.4 m/s
mass density ([1]; x1 = 0.195): 796.76 ± 0.97 kg/m3
speed of sound ([1]; x1 = 0.195): 1195.4 ± 5.3 m/s
mass density ([1]; x1 = 0.3049): 794.67 ± 0.98 kg/m3
speed of sound ([1]; x1 = 0.3049): 1187.9 ± 5.3 m/s
mass density ([1]; x1 = 0.4062): 792.8 ± 0.98 kg/m3
speed of sound ([1]; x1 = 0.4062): 1181.3 ± 5.3 m/s
mass density ([1]; x1 = 0.4941): 791.17 ± 0.99 kg/m3
speed of sound ([1]; x1 = 0.4941): 1175.4 ± 5.3 m/s
mass density ([1]; x1 = 0.6029): 789.12 ± 0.99 kg/m3
speed of sound ([1]; x1 = 0.6029): 1168 ± 5.3 m/s
mass density ([1]; x1 = 0.7067): 787.16 ± 1 kg/m3
speed of sound ([1]; x1 = 0.7067): 1161 ± 5.2 m/s
mass density ([1]; x1 = 0.8063): 785.31 ± 1 kg/m3
speed of sound ([1]; x1 = 0.8063): 1154.2 ± 5.2 m/s
mass density ([1]; x1 = 0.91): 783.37 ± 1 kg/m3
speed of sound ([1]; x1 = 0.91): 1147.5 ± 5.2 m/s
mass density ([1]; x1 = 0.9515): 782.54 ± 1 kg/m3
speed of sound ([1]; x1 = 0.9515): 1144.5 ± 5.2 m/s

CCCO [propan-1-ol]
mass density [2]: 800.62 ± 0.6 kg/m3
speed of sound [2]: 1208.1 ± 2.8 m/s

CCCCCCCCO [octan-1-ol] + CC(C)O
mass density ([1]; x2 = 0.0862): 819.96 ± 1.4 kg/m3
speed of sound ([1]; x2 = 0.0862): 1338.7 ± 6.4 m/s
mass density ([1]; x2 = 0.2078): 817.18 ± 1.4 kg/m3
speed of sound ([1]; x2 = 0.2078): 1324.2 ± 6.2 m/s
mass density ([1]; x2 = 0.2977): 814.58 ± 1.3 kg/m3
speed of sound ([1]; x2 = 0.2977): 1311.6 ± 6.1 m/s
mass density ([1]; x2 = 0.4059): 811.74 ± 1.2 kg/m3
speed of sound ([1]; x2 = 0.4059): 1296 ± 6 m/s
mass density ([1]; x2 = 0.5012): 808.6 ± 1.2 kg/m3
speed of sound ([1]; x2 = 0.5012): 1279.4 ± 5.9 m/s
mass density ([1]; x2 = 0.5991): 804.77 ± 1.1 kg/m3
speed of sound ([1]; x2 = 0.5991): 1259.8 ± 5.7 m/s
mass density ([1]; x2 = 0.6994): 800.52 ± 1.1 kg/m3
speed of sound ([1]; x2 = 0.6994): 1237.7 ± 5.6 m/s
mass density ([1]; x2 = 0.7985): 795.28 ± 1.1 kg/m3
speed of sound ([1]; x2 = 0.7985): 1211.1 ± 5.5 m/s
mass density ([1]; x2 = 0.8993): 789.09 ± 1 kg/m3
speed of sound ([1]; x2 = 0.8993): 1179.3 ± 5.3 m/s
mass density ([1]; x2 = 0.9453): 785.8 ± 1 kg/m3
speed of sound ([1]; x2 = 0.9453): 1162.8 ± 5.3 m/s

CCCCCCCCO [octan-1-ol]
mass density [2]: 821.72 ± 2.1 kg/m3
speed of sound [2]: 1347.9 ± 6.5 m/s

CCCCCCO [hexan-1-ol] + CC(C)O
mass density ([1]; x2 = 0.039): 814.4 ± 1.2 kg/m3
speed of sound ([1]; x2 = 0.039): 1299.6 ± 5.9 m/s
mass density ([1]; x2 = 0.1037): 813 ± 1.1 kg/m3
speed of sound ([1]; x2 = 0.1037): 1292.9 ± 5.9 m/s
mass density ([1]; x2 = 0.2075): 810.57 ± 1.1 kg/m3
speed of sound ([1]; x2 = 0.2075): 1281.1 ± 5.8 m/s
mass density ([1]; x2 = 0.3051): 808.2 ± 1.1 kg/m3
speed of sound ([1]; x2 = 0.3051): 1269.2 ± 5.7 m/s
mass density ([1]; x2 = 0.4032): 805.42 ± 1.1 kg/m3
speed of sound ([1]; x2 = 0.4032): 1255.9 ± 5.7 m/s
mass density ([1]; x2 = 0.5067): 802.47 ± 1.1 kg/m3
speed of sound ([1]; x2 = 0.5067): 1241.4 ± 5.6 m/s
mass density ([1]; x2 = 0.6044): 799.08 ± 1 kg/m3
speed of sound ([1]; x2 = 0.6044): 1225 ± 5.5 m/s
mass density ([1]; x2 = 0.7047): 795.43 ± 1 kg/m3
speed of sound ([1]; x2 = 0.7047): 1207.3 ± 5.4 m/s
mass density ([1]; x2 = 0.8059): 791.12 ± 1 kg/m3
speed of sound ([1]; x2 = 0.8059): 1186.8 ± 5.4 m/s
mass density ([1]; x2 = 0.9081): 786.44 ± 1 kg/m3
speed of sound ([1]; x2 = 0.9081): 1164.3 ± 5.3 m/s

CCCCO [butan-1-ol]
mass density [2]: 806.14 ± 0.59 kg/m3
speed of sound [2]: 1240.8 ± 2.9 m/s

CCCCCCO [hexan-1-ol]
mass density [2]: 815.15 ± 1.2 kg/m3
speed of sound [2]: 1303.6 ± 5.9 m/s

CC(C)O [propan-2-ol]
mass density [2]: 781.91 ± 0.62 kg/m3
speed of sound [2]: 1141.3 ± 2.7 m/s
